Legend:
Human iPS cells (201B7) [1] = assay: Induction of differentiation into hepatic progenitor cells by growth-promoting agents (real-time quantitative PCR of AFP and DLK-1); format: cell-based; settings: iPS cells transfected with FOXA2, GATA4, HEX, C/EBPα three times every three days, 8th day, n=3, ± standard error, ReproFF lane = 100; for α-fetoprotein/RPL19 ratio (mRNA expression): FIG. 3-1; for DLK-1/RPL19 ratio (mRNA expression): FIG. 3-2
Protocol: Human iPS cells (201B7, RIKEN cell bank) were seeded onto a matrigel-coated 6-well plate, and cultured in a medium, ReproFF in accordance with a conventional method under the following conditions: 37° C. and 5% carbon dioxide. A lipofection reagent, Lipofectamine LTX (registered trade mark, Life Technologies Japan Ltd.) was used to transfect 0.5 μg of expression plasmids of FOXA2, GATA4, HEX and C/EBPα, respectively.
As the expression vectors of the transcription factors, used were expression vectors (human TrueClone, OriGene Technologies, Inc., COSMO BIO co., ltd.) in which full-length cDNAs of human FOXA2, GATA4, HEX and CEBPA were each incorporated in the downstream of a potent-promoting agent derived from cytomegalovirus. In the human FOXA2 expression vector (catalog No. sc122913), the full-length cDNA coding human FoxA2 protein was inserted between EcoR1 and Sal1 restricted sites of pCMV6-XL5. In the human GATA4 expression vector (catalog No. sc124037), the full-length cDNA coding human GATA4 protein was inserted between EcoR1 and Sal1 restricted sites of pCMV6-XL4. In the human HEX expression vector (catalog No. sc321626), the full-length cDNA coding human HHEX protein was inserted between Sgf1 and Mlu1 restricted sites of pCMV6-AC. In the human CEBPA expression vector (catalog No. sc303472), the full-length cDNA coding human CEBPA protein was inserted between EcoR1 and Sal1 restricted sites of pCMV6-XL5.
Immediately before transfection, the medium to be used was changed to a medium obtained by adding oncostatin M (Wako Pure Chemical Industries, Ltd.), EGF (Wako Pure Chemical Industries, Ltd.) and retinoic acid (Wako Pure Chemical Industries, Ltd.) to the iPSm(−) medium. Here, the iPSm(−) medium corresponds to a medium obtained by eliminating a basic fibroblast growth factor from a medium for feeder cells of human iPS cells recommended by CiRA at Kyoto University. […]
The transfection of the transcription factors was repeated three times every three days, and, on the 8th day, RNA was extracted using Isogen (NIPPON GENE CO., LTD.). […] Then, the amount of expressed α-fetoprotein (AFP), which was an indicator of hepatic progenitor cells, was analyzed by the real-time quantitative PCR method using a real-time PCR analysis reagent, Fast SYBR Green Master Mix (trade name, Life Technologies Japan Ltd.). […] The amounts of α-fetoprotein (AFP) and Delta-like (DLK)-1 expressed were quantitatively determined as an indicator of hepatic progenitor cells by employing ribosome-related protein (RLP19) as internal standard (each group, n=3).
The real-time quantitative PCR was performed by using the following primers through a PCR cycle including 30 cycles of 5 seconds at 95° C. and 20 seconds at 60° C.

Human iPS cells (201B7) [2] = assay: Expression of transcription factors in iPS cells cultured with single growth-promoting agents (RT-PCR, electrophoresis); format: cell-based; settings: iPS cells in iPSm(−) medium with the growth-promoting agent added; PCR and electrophoresis, FIG. 2
Protocol: Reverse transcriptase (Life Technologies Japan Ltd.) was used to synthesize cDNAs of iPS cells, fetal hepatic cells and adult hepatic cells from 3 μg of RNA. The cDNAs were subjected to polymerase chain reaction (PCR) using the following primers to GATA4, FOXA2, HEX, C/EBPα and C/EBPβ, respectively, and to electrophoresis using 2% low-melting agarose (Lonza) and 1×TAE, for investigations on the expression of GATA4, FOXA2, HEX, C/EBPα and C/EBNβ in the iPS cells, fetal hepatic cells and adult hepatic cells.
After electrophoresis, the 2% low-melting agarose was irradiated with ultraviolet rays at 254 nm from a UV transilluminator (UVP LLC, NLMS-20E), and a Polaroid photograph (FUJIFILM Corporation, FP-3000B) thereof was taken with a gel camera (Funakoshi DS-300) to analyze an electrophoretic pattern.
PCR cycles performed included 30 cycles of thermal denaturation: 1 minute at 94° C.; annealing: 1 minute and elongation reaction: 1 minute at 72° C.
Human iPS cells (201B7, RIKEN cell bank) were seeded onto a matrigel-coated 6-well plate, and cultured in a feeder-less medium, ReproFF (trade name, Reprocell Inc.) for culture of stem cells maintained in an undifferentiated state, without using a feeder cell, under conventional conditions: 37° C. and 5% carbon dioxide.
A medium obtained by adding a 20% knock-out serum replacement (Life Technologies Japan Ltd.), 10% Minimum Essential Amino Acids (Life Technologies Japan Ltd.), 2 mM of L-glutamine (Life Technologies Japan Ltd.) and 1 mM of 2-mercaptoethanol to a D-MEM/F12 medium (Dulbecco's Modified Eagle Medium-F12 medium, Sigma-Aldrich Japan) was used as an iPSm(−) medium.
The following growth-promoting agents were added to the iPSm(−) medium, and SOX-17, GATA6, FOXA2, GATA4, HEX, TTR and C/EBPα were expressed in a manner similar to that in Experiment 1.
As the growth-promoting agents, added were bFGF (basic fibroblast growth factor, Wako Pure Chemical Industries, Ltd.), BMP (bone morphogenetic protein)-4 (Wako Pure Chemical Industries, Ltd.), oncostatinM (Wako Pure Chemical Industries, Ltd.), an epidermal growth factor (EGF, Wako Pure Chemical Industries, Ltd.), a nerve growth factor (NGF, R & D Systems, Inc.), TGF-β, (transform growth factor-β, R& D Systems, Inc.), retinoic acid (Sigma-Aldrich Japan) and a hepatic cell growth factor (HGF, Sigma-Aldrich Japan).
RT-PCR to SOX-17, GATA6 and TTR was performed under the following conditions.

Row | Compound | α-fetoprotein/RPL19 ratio (mRNA expression) (Human iPS cells (201B7) [1]) | DLK-1/RPL19 ratio (mRNA expression) (Human iPS cells (201B7) [1]) | expression of C/EBPα (Human iPS cells (201B7) [2]) | expression of FOXA2 (Human iPS cells (201B7) [2]) | expression of GATA4 (Human iPS cells (201B7) [2]) | expression of GATA6 (Human iPS cells (201B7) [2]) | expression of HEX (Human iPS cells (201B7) [2])
1 | C[C@@H]1C[C@H]2[C@@H]3CCC4=CC(=O)C=C[C@]4(C)[C@@]3(F)[C@@H](O)C[C@]2(C)[C@@]1(O)C(=O)CO [dexamethasone] | 50.1±5 | 208±54 |  |  |  |  | 
2 | CC1=C(/C=C/C(C)=C/C=C/C(C)=C/C(=O)O)C(C)(C)CCC1 [retinoic acid] | 133±58 | 79±40 |  |  |  |  | 
3 | TGF-β: transform growth factor-β, R&D Systems |  |  | not observed to be expressed | not observed to be expressed | not observed to be expressed | observed to be expressed | not observed to be expressed

Reference: patent US20130260458A1, “METHOD OF INDUCING DIFFERENTIATION OF HUMAN PLURIPOTENT STEM CELL INTO HEPATIC PROGENITOR CELL” (NATIONAL UNIVERSITY CORPORATION CHIBA UNIVERSITY, priority 2012, published 2013)
